Legend:
Assay type in all cases: in vivo
[1] = tested on: Bemisia tabaci (Cotton White Fly); experiment: Bemisia tabaci (cotton white fly), sprayed cotton leaf discs; settings: foliar, 144 h, application rate of 200 ppm, adult white flies on cotton leaf discs, 6 days after incubation
Procedure: Example B1: Bemisia tabaci (Cotton White Fly)
Cotton leaf discs were placed on agar in 24-well microtiter plates and sprayed with aqueous test solutions prepared from 10′000 ppm DMSO stock solutions. After drying the leaf discs were infested with adult white flies. The samples were checked for mortality 6 days after incubation.

[2] = tested on: Diabrotica balteata (Corn Root Worm); experiment: Diabrotica balteata (corn root worm), sprayed maize sprouts; settings: 96 h, application rate of 200 ppm, L2 larvae on maize sprouts, 4 days after infestation
Procedure: Example B2: Diabrotica balteata (Corn Root Worm)
Maize sprouts, placed on an agar layer in 24-well microtiter plates were treated with aqueous test solutions prepared from 10′000 ppm DMSO stock solutions by spraying. After drying, the plates were infested with L2 larvae (6 to 10 per well). The samples were assessed for mortality and growth inhibition in comparison to untreated samples 4 days after infestation.

[3] = tested on: Plutella xylostella (Diamond Back Moth); experiment: Plutella xylostella (diamond back moth), treated artificial diet; settings: 120 h, application rate of 200 ppm, L2 larvae on artificial diet, 5 days after infestation, read-out: effect in at least one of the two categories (mortality or growth inhibition)
Outline: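 Artificial diet treated with aqueous dilutions of DMSO stocks (10′000 ppm stock), dried, then infested with 10-15 L2 larvae per well. Mortality and growth inhibition assessed versus untreated controls 5 days after infestation.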

[4] = tested on: Spodoptera littoralis (Egyqptian Cotton Leaf Worm); experiment: Spodoptera littoralis (Egyptian cotton leaf worm), sprayed cotton leaf discs; settings: foliar, 72 h, application rate of 200 ppm, L1 larvae on cotton leaf discs, 3 days after infestation
Outline: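 Cotton leaf discs on agar were sprayed with aqueous dilutions made from 10′000 ppm DMSO stocks, then infested after drying with five L1 larvae. Mortality, anti-feedant effect and growth inhibition were scored against untreated discs 3 days after infestation. Control means at least one of these exceeds the untreated sample.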

[5] = tested on: Thrips tabaci (Onion Thrips); experiment: Thrips tabaci (onion thrips), sprayed sunflower leaf discs; settings: foliar, 144 h, application rate of 200 ppm, mixed ages on sunflower leaf discs, 6 days after infestation
Procedure: Example B10: Thrips tabaci (Onion Thrips)
Sunflower leaf discs were placed on agar in 24-well microtiter plates and sprayed with aqueous test solutions prepared from 10′000 ppm DMSO stock solutions. After drying the leaf discs were infested with a thrips population of mixed ages. The samples were assessed for mortality 6 days after infestation.

[6] = tested on: Frankliniella occidentalis (Western Flower Thrips); experiment: Frankliniella occidentalis (western flower thrips), sprayed sunflower leaf discs; settings: foliar, 168 h, application rate of 200 ppm, mixed ages on sunflower leaf discs, 7 days after infestation
Procedure: Example B11: Frankliniella occidentalis (Western Flower Thrips)
Sunflower leaf discs were placed on agar in 24-well microtiter plates and sprayed with aqueous test solutions prepared from […] stock solutions. After drying the leaf discs were infested with a Frankliniella population of mixed ages. The samples were assessed for mortality 7 days after infestation.

[7] = tested on: Aedes aegypti (Yellow Fever Mosquito); experiment: Activity against Aedes aegypti (yellow fever mosquito), dried deposits in tissue culture plates; settings: application rate of 200 ppm in ethanol, adult females, after 48 h
Procedure: Example B12: Activity Against Aedes aegypti (Yellow Fever Mosquito)
Test solutions, at an application rate of 200 ppm in ethanol, were applied to 12-well tissue culture plates. Once the deposits were dry, five, two to five days old adult female Aedes aegypti were added to each well, and sustained with a 10% sucrose solution in a cotton wool plug. Assessment of knockdown was made one hour after introduction, and mortality was assessed at 24 and 48 hours after introduction.
The following compounds gave at least 80% control of Aedes aegypti after 48 h: […]

[8] = tested on: Euschistus heros (Neotropical Brown Stink Bug); experiment: Euschistus heros (neotropical brown stink bug), sprayed soybean leaf; settings: 120 h, application rate of 200 ppm, N-2 nymphs on soybean leaf, 5 days after infestation
Procedure: Example B3: Euschistus heros (Neotropical Brown Stink Bug)
Soybean leaf on agar in 24-well microtiter plates were sprayed with aqueous test solutions prepared from 10′000 ppm DMSO stock solutions. After drying the leaf were infested with N-2 nymphs. The samples were assessed for mortality in comparison to untreated samples 5 days after infestation.

[9] = tested on: Myzus persicae (Green Peach Aphid); experiment: Myzus persicae (green peach aphid), sprayed sunflower leaf discs; settings: foliar, 144 h, application rate of 200 ppm, mixed ages on sunflower leaf discs, 6 days after infestation
Procedure: Example B4: Myzus persicae (Green Peach Aphid)
Sunflower leaf discs were placed on agar in a 24-well microtiter plate and sprayed with aqueous test solutions prepared from 10′000 ppm DMSO stock solutions. After drying, the leaf discs were infested with an aphid population of mixed ages. The samples were assessed for mortality 6 days after infestation.

[10] = tested on: Spodoptera littoralis (Egyqptian Cotton Leaf Worm); experiment: Spodoptera littoralis (Egyptian cotton leaf worm), compound in agar taken up by lettuce roots; settings: 144 h, test rate of 12.5 ppm, uptake by lettuce roots from agar, 6 days after infestation, read-out: effect in at least one of the three categories (mortality, anti-feedancy, or growth inhibition)
Outline: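 Compound mixed into agar from a 10′000 ppm DMSO stock and taken up over 7 days by lettuce roots; cut leaves then infested with Spodoptera eggs. Mortality, anti-feedant effect and growth inhibition scored against untreated samples 6 days after infestation.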

[11] = tested on: Myzus persicae (Green Peach Aphid); experiment: Myzus persicae (green peach aphid), roots of pea seedlings in test solution; settings: 144 h, test rate of 24 ppm, roots of infested pea seedlings in test solution, 6 days
Procedure: Example B5: Myzus persicae (Green Peach Aphid)
Roots of pea seedlings infested with an aphid population of mixed ages were placed directly in the aqueous test solutions prepared from 10′000 DMSO stock solutions. The samples were assessed for mortality 6 days after placing seedlings in test solutions.

[12] = tested on: Tetranychus urticae (Two-Spotted Spider Mite); experiment: Tetranychus urticae (two-spotted spider mite), sprayed bean leaf discs; settings: foliar, 192 h, application rate of 200 ppm, mixed population (mobile stages) on bean leaf discs, 8 days after infestation
Procedure: Example B9: Tetranychus urticae (Two-Spotted Spider Mite)
Bean leaf discs on agar in 24-well microtiter plates were sprayed with aqueous test solutions prepared from 10′000 ppm DMSO stock solutions. After drying the leaf discs were infested with a mite population of mixed ages. The samples were assessed for mortality on mixed population (mobile stages) 8 days after infestation.

CCS(=O)(=O)c1cc(-n2cc(Br)cn2)cnc1-c1nc2cc(C(F)(F)F)ncc2n1C [Compound P17]
≥ 80%: mortality at 200 ppm [1] | mortality at 200 ppm [2] | percent effect (mortality or growth inhibition) at 200 ppm [3] | percent control (mortality, anti-feedant effect or growth inhibition) at 200 ppm [4] | mortality at 200 ppm [5] | mortality at 200 ppm [6] | pest or weed control at 200 ppm [7]

CCS(=O)(=O)c1cc(-c2ncc(Cl)cn2)cnc1-c1nc2cc(C(F)(F)F)ncc2n1C [Compound P11]
≥ 80%: mortality at 200 ppm [1] | mortality at 200 ppm [2] | mortality at 200 ppm [8] | mortality at 200 ppm [9] | percent effect (mortality or growth inhibition) at 200 ppm [3] | percent control (mortality, anti-feedant effect or growth inhibition) at 200 ppm [4] | percent control (mortality, anti-feedancy or growth inhibition) at 12.5 ppm [10] | mortality at 200 ppm [5] | mortality at 200 ppm [6] | pest or weed control at 200 ppm [7]

CCS(=O)(=O)c1cc(-n2cc(C(F)(F)F)cn2)cnc1-c1nc2cc(C(F)(F)F)ncc2n1C [Compound P85]
≥ 80%: mortality at 200 ppm [1] | mortality at 200 ppm [2] | mortality at 200 ppm [8] | mortality at 200 ppm [9] | percent effect (mortality or growth inhibition) at 200 ppm [3] | percent control (mortality, anti-feedant effect or growth inhibition) at 200 ppm [4] | percent control (mortality, anti-feedancy or growth inhibition) at 12.5 ppm [10] | mortality at 200 ppm [5] | mortality at 200 ppm [6] | pest or weed control at 200 ppm [7]

CCS(=O)(=O)c1cc(-n2cc(C#N)cn2)cnc1-c1nc2cc(C(F)(F)F)ncc2n1C [Compound P94]
≥ 80%: mortality at 200 ppm [1] | mortality at 200 ppm [2] | mortality at 200 ppm [8] | mortality at 200 ppm [9] | mortality at 24 ppm [11] | percent effect (mortality or growth inhibition) at 200 ppm [3] | percent control (mortality, anti-feedant effect or growth inhibition) at 200 ppm [4] | mortality at 200 ppm [5] | mortality at 200 ppm [6] | pest or weed control at 200 ppm [7]

CCS(=O)(=O)c1cc(-c2ccc(Cl)cn2)cnc1-c1nc2cc(C(F)(F)F)ncc2n1C [Compound P20]
≥ 80%: mortality at 200 ppm [1] | mortality at 200 ppm [2] | mortality at 200 ppm [8] | mortality at 200 ppm [9] | percent effect (mortality or growth inhibition) at 200 ppm [3] | percent control (mortality, anti-feedant effect or growth inhibition) at 200 ppm [4] | percent control (mortality, anti-feedancy or growth inhibition) at 12.5 ppm [10] | mortality at 200 ppm [5] | mortality at 200 ppm [6] | pest or weed control at 200 ppm [7]

CCS(=O)(=O)c1cc(-c2ncc(C#N)cn2)cnc1-c1nc2cc(C(F)(F)F)ncc2n1C [Compound P111]
≥ 80%: mortality at 200 ppm [1] | mortality at 200 ppm [2] | mortality at 200 ppm [8] | mortality at 200 ppm [9] | mortality at 24 ppm [11] | percent effect (mortality or growth inhibition) at 200 ppm [3] | percent control (mortality, anti-feedant effect or growth inhibition) at 200 ppm [4] | mortality at 200 ppm [5] | mortality at 200 ppm [6] | pest or weed control at 200 ppm [7]

CCS(=O)(=O)c1cc(-c2cccc(C#N)n2)cnc1-c1nc2cc(C(F)(F)F)ncc2n1C [Compound P64]
≥ 80%: mortality at 200 ppm [1] | mortality at 200 ppm [2] | mortality at 200 ppm [8] | mortality at 200 ppm [9] | percent effect (mortality or growth inhibition) at 200 ppm [3] | percent control (mortality, anti-feedant effect or growth inhibition) at 200 ppm [4] | percent control (mortality, anti-feedancy or growth inhibition) at 12.5 ppm [10] | mortality at 200 ppm [12]

CCS(=O)(=O)c1cc(-n2cc(Cl)cn2)cnc1-c1nc2cc(C(F)(F)F)ncc2n1C [Compound P16, 2-[5-(4-chloropyrazol-1-yl)-3-ethylsulfonyl-2-pyridyl]-3-methyl-6-(trifluoromethyl)imidazo[4,5-c]pyridine]
≥ 80%: mortality at 200 ppm [1] | mortality at 200 ppm [2] | mortality at 200 ppm [8] | mortality at 200 ppm [9] | percent effect (mortality or growth inhibition) at 200 ppm [3] | percent control (mortality, anti-feedant effect or growth inhibition) at 200 ppm [4] | percent control (mortality, anti-feedancy or growth inhibition) at 12.5 ppm [10] | mortality at 200 ppm [5] | mortality at 200 ppm [6] | pest or weed control at 200 ppm [7]

CCS(=O)(=O)c1cc(-c2nccc(C(F)(F)F)n2)cnc1-c1nc2cc(C(F)(F)F)ncc2n1C [Compound P100]
≥ 80%: mortality at 200 ppm [1] | mortality at 200 ppm [2] | mortality at 200 ppm [8] | mortality at 200 ppm [9] | percent effect (mortality or growth inhibition) at 200 ppm [3] | percent control (mortality, anti-feedant effect or growth inhibition) at 200 ppm [4] | percent control (mortality, anti-feedancy or growth inhibition) at 12.5 ppm [10] | mortality at 200 ppm [5] | mortality at 200 ppm [6] | pest or weed control at 200 ppm [7]

CCS(=O)(=O)c1cc(-c2ccoc2)cnc1-c1nc2cc(C(F)(F)F)ncc2n1C [Compound P71]
≥ 80%: mortality at 200 ppm [2] | mortality at 200 ppm [8] | mortality at 200 ppm [9] | percent effect (mortality or growth inhibition) at 200 ppm [3] | percent control (mortality, anti-feedancy or growth inhibition) at 12.5 ppm [10] | mortality at 200 ppm [12]

— patent US9809587B2, “Pesticidally active heterocyclic derivatives with sulphur containing substituents” (Syngenta Participations AG, priority 2014, dated 2017)
